Patent US9901592B2 (priority 2008, dated 2018)
≈ marks a conversion by molar mass, not a printed value. Where “and” joins values, the source holds several entries; their conditions need not be identical. Equal values may be shown once. Read-outs that look alike come from different tables or passages of the source.

How the values were obtained:
S. pneumoniae [1] = test: microbe, parasite or virus in culture; format: cell-based; settings: for MIC: Streptococcus pneumoniae
M. hominis = format: cell-based; settings: M. hominis (13 isolates)
S. pneumoniae [2] = test: MIC of the strains of the mouse systemic infection model; format: cell-based; settings: Streptococcus pneumoniae
S. pneumoniae [3] = test: mouse systemic infection model (PD50); format: in vivo
U. urealyticum = test: MIC testing in 10B broth (colour change); format: cell-based; settings: U. urealyticum (10 isolates)
pneumococci = test: microbe, parasite or virus in culture; format: cell-based, S. pneumoniae
M. pneumoniae = test: microbe, parasite or virus in culture; format: cell-based; settings: Mycoplasmoides pneumoniae
S. pneumoniae [4] = test: microbe, parasite or virus in culture; format: cell-based
[5] = S. pneumoniae (macrolide susceptible)
[6] = Streptococcus pneumoniae, pneumococci, L4 mutations (27)

Q: With `CC[C@H]1OC(=O)[C@H](C)C(=O)[C@H](C)[C@@H](O[C@@H]2O[C@H](C)C[C@H](N(C)C)[C@H]2O)[C@](C)(OC)C[C@@H](C)C(=O)[C@H](C)[C@H]2N(CCCCn3cnc(-c4cccnc4)c3)C(=O)O[C@]12C` [TEL, telithromycin] as the compound, how does the MIC (S. pneumoniae [1]; read-out: Initial MIC, strain 3665 Macrolide-R [mef(A)], parent) read?
A: 0.125 µg/mL (≈ 0.154 µM)

Q: And the MIC (S. pneumoniae [1]; read-out: Initial MIC, strain 7127 Macrolide-S [S20N in L4, A105V in L22], parent)?
A: 0.008 µg/mL (≈ 0.00985 µM)

Q: What about the MIC (S. pneumoniae [1]; read-out: MIC of parents of resistant clones, S. pneumoniae (CEM-101: 7 strains)) of the same compound?
A: 0.004 to 0.5 µg/mL

Q: And the MIC (S. pneumoniae [1]; read-out: Parental MICs, S. pneumoniae, 8 strains with varying resistotypes)?
A: 0.004 to 0.5 µg/mL (≈ 0.00493 to 0.616 µM)

Q: What about the MIC (S. pneumoniae [1]; read-out: Selected Resistance MIC, strain 24 Macrolide-R [erm(B)], after serial passages in the drug) of the same compound?
A: 32 µg/mL (≈ 39.4 µM)

Q: And the MIC (S. pneumoniae [1]; read-out: Selected Resistance MIC, strain 1076 Macrolide-R [erm(B)&mef(A)], after serial passages in the drug)?
A: > 64 µg/mL

Q: And the MIC (S. pneumoniae [1]; read-out: Selected Resistance MIC, strain 1077 Macrolide-S, after serial passages in the drug)?
A: 0.25 µg/mL (≈ 0.308 µM)

Q: What about the MIC (S. pneumoniae [1]; read-out: Selected Resistance MIC, strain 1635 Macrolide-R [erm(A)], after serial passages in the drug) of the same compound?
A: 0.008 µg/mL (≈ 0.00985 µM)

Q: What about the MIC (S. pneumoniae [1]; read-out: Selected Resistance MIC, strain 2686 Macrolide-R [L4 mutation], after serial passages in the drug) of the same compound?
A: 0.5 µg/mL (≈ 0.616 µM)

Q: What about the MIC (S. pneumoniae [1]; read-out: Selected Resistance MIC, strain 3009 Macrolide-R [23SrRNA mutation], after serial passages in the drug) of the same compound?
A: 0.03 µg/mL (≈ 0.0369 µM)

Q: And the MIC (S. pneumoniae [1]; read-out: Selected Resistance MIC, strain 3665 Macrolide-R [mef(A)], after serial passages in the drug)?
A: 2 µg/mL (≈ 2.46 µM)

Q: And the MIC (S. pneumoniae [1]; read-out: Selected Resistance MIC, strain 7127 Macrolide-S [S20N in L4, A105V in L22], after serial passages in the drug)?
A: 0.06 µg/mL (≈ 0.0739 µM)

Q: What about the “days until resistant clones (MIC increase)” value (S. pneumoniae [1]; daily passages, min. 14, max. 50) of the same compound?
A: 14 to 38 days

Q: And the “Retest MIC after 10 Antibiotic-free Subcultures” value (S. pneumoniae [1]; strain 24 Macrolide-R [erm(B)], clone selected with CEM-101)?
A: 0.125 µg/mL

Q: And the “Retest MIC after 10 Antibiotic-free Subcultures” value (S. pneumoniae [1]; strain 24 Macrolide-R [erm(B)], clone selected with TEL)?
A: 16 µg/mL

Q: What about the “Retest MIC after 10 Antibiotic-free Subcultures” value (S. pneumoniae [1]; strain 1076 Macrolide-R [erm(B)&mef(A)], clone selected with CEM-101) of the same compound?
A: 32 µg/mL

Q: What about the “Retest MIC after 10 Antibiotic-free Subcultures” value (S. pneumoniae [1]; strain 1076 Macrolide-R [erm(B)&mef(A)], clone selected with TEL) of the same compound?
A: >64 µg/mL

Q: What about the “Retest MIC after 10 Antibiotic-free Subcultures” value (S. pneumoniae [1]; strain 1077 Macrolide-S, clone selected with AZI) of the same compound?
A: 0.125 µg/mL

Q: What about the “Retest MIC after 10 Antibiotic-free Subcultures” value (S. pneumoniae [1]; strain 1077 Macrolide-S, clone selected with CEM-101) of the same compound?
A: 0.06a μg/ml

Q: What about the “Retest MIC after 10 Antibiotic-free Subcultures” value (S. pneumoniae [1]; strain 1077 Macrolide-S, clone selected with CLN) of the same compound?
A: 0.06 µg/mL

Q: And the “Retest MIC after 10 Antibiotic-free Subcultures” value (S. pneumoniae [1]; strain 1077 Macrolide-S, clone selected with TEL)?
A: 0.25 µg/mL

Q: What about the “Retest MIC after 10 Antibiotic-free Subcultures” value (S. pneumoniae [1]; strain 1635 Macrolide-R [erm(A)], clone selected with AZI) of the same compound?
A: 0.004 µg/mL

Q: What about the “Retest MIC after 10 Antibiotic-free Subcultures” value (S. pneumoniae [1]; strain 1635 Macrolide-R [erm(A)], clone selected with CEM-101) of the same compound?
A: 0.03 µg/mL

Q: What about the “Retest MIC after 10 Antibiotic-free Subcultures” value (S. pneumoniae [1]; strain 1635 Macrolide-R [erm(A)], clone selected with CLN) of the same compound?
A: 0.008 µg/mL

Q: And the “Retest MIC after 10 Antibiotic-free Subcultures” value (S. pneumoniae [1]; strain 1635 Macrolide-R [erm(A)], clone selected with CLR)?
A: 0.016 µg/mL

Q: And the “Retest MIC after 10 Antibiotic-free Subcultures” value (S. pneumoniae [1]; strain 2686 Macrolide-R [L4 mutation], clone selected with CEM-101)?
A: 0.25 µg/mL

Q: What about the “Retest MIC after 10 Antibiotic-free Subcultures” value (S. pneumoniae [1]; strain 2686 Macrolide-R [L4 mutation], clone selected with CLR) of the same compound?
A: 0.06 µg/mL

Q: What about the “Retest MIC after 10 Antibiotic-free Subcultures” value (S. pneumoniae [1]; strain 2686 Macrolide-R [L4 mutation], clone selected with TEL) of the same compound?
A: 0.5 µg/mL

Q: And the “Retest MIC after 10 Antibiotic-free Subcultures” value (S. pneumoniae [1]; strain 3009 Macrolide-R [23SrRNA mutation], clone selected with CEM-101)?
A: 0.06 µg/mL

Q: What about the “Retest MIC after 10 Antibiotic-free Subcultures” value (S. pneumoniae [1]; strain 3009 Macrolide-R [23SrRNA mutation], clone selected with CLR) of the same compound?
A: 0.06 µg/mL

Q: What about the “Retest MIC after 10 Antibiotic-free Subcultures” value (S. pneumoniae [1]; strain 3665 Macrolide-R [mef(A)], clone selected with CEM-101) of the same compound?
A: 0.25 µg/mL

Q: And the “Retest MIC after 10 Antibiotic-free Subcultures” value (S. pneumoniae [1]; strain 3665 Macrolide-R [mef(A)], clone selected with CLR)?
A: 0.06 µg/mL

Q: What about the “Retest MIC after 10 Antibiotic-free Subcultures” value (S. pneumoniae [1]; strain 3665 Macrolide-R [mef(A)], clone selected with TEL) of the same compound?
A: 0.25 µg/mL

Q: And the “Retest MIC after 10 Antibiotic-free Subcultures” value (S. pneumoniae [1]; strain 7127 Macrolide-S [S20N in L4, A105V in L22], clone selected with AZI)?
A: 0.016 µg/mL

Q: What about the “Retest MIC after 10 Antibiotic-free Subcultures” value (S. pneumoniae [1]; strain 7127 Macrolide-S [S20N in L4, A105V in L22], clone selected with CEM-101) of the same compound?
A: 0.06 µg/mL

Q: And the “Retest MIC after 10 Antibiotic-free Subcultures” value (S. pneumoniae [1]; strain 7127 Macrolide-S [S20N in L4, A105V in L22], clone selected with CLN)?
A: 0.008 µg/mL

Q: And the “Retest MIC after 10 Antibiotic-free Subcultures” value (S. pneumoniae [1]; strain 7127 Macrolide-S [S20N in L4, A105V in L22], clone selected with CLR)?
A: 0.008 µg/mL

Q: What about the “Retest MIC after 10 Antibiotic-free Subcultures” value (S. pneumoniae [1]; strain 7127 Macrolide-S [S20N in L4, A105V in L22], clone selected with TEL) of the same compound?
A: 0.03 µg/mL

Q: And the “MIC Range” value (M. hominis)?
A: 0.125 to 0.5 µg/mL

Q: And the MIC50 (M. hominis; Metamycoplasma hominis, read-out: MIC50)?
A: 0.25 µg/mL (≈ 0.308 µM)

Q: What about the MIC90 (M. hominis; Metamycoplasma hominis, read-out: MIC90) of the same compound?
A: 0.5 µg/mL (≈ 0.616 µM)

Q: What about the MIC (S. pneumoniae [2]; [5]) of the same compound?
A: < 0.06 µg/mL

Q: And the MIC (S. pneumoniae [2]; S. pneumoniae (mefR), read-out: MIC)?
A: 0.25 µg/mL

Q: And the MIC (S. pneumoniae [2]; S. pneumoniae serotype 19A, read-out: MIC)?
A: 0.5 µg/mL

Q: And the PD50 (S. pneumoniae [3]; [5])?
A: 19.9 mg/kg

Q: And the PD50 (S. pneumoniae [3]; S. pneumoniae (mefR))?
A: 10.6 mg/kg

Q: And the PD50 (S. pneumoniae [3]; S. pneumoniae serotype 19A)?
A: 5.7 mg/kg

Q: What about the “MIC Range” value (U. urealyticum) of the same compound?
A: 0.016 to 0.25 µg/mL

Q: What about the MIC50 (U. urealyticum; Ureaplasma urealyticum) of the same compound?
A: 0.063 µg/mL (≈ 0.0776 µM)

Q: What about the MIC90 (U. urealyticum; Ureaplasma urealyticum) of the same compound?
A: 0.25 µg/mL (≈ 0.308 µM)

Q: And the “MIC Range” value (pneumococci)?
A: 0.03 to 2 µg/mL

Q: What about the MIC range (pneumococci) of the same compound?
A: 0.015 to 1 µg/mL and 0.03 to 2 µg/mL and 0.03 to 0.5 µg/mL and 0.03 to 0.06 µg/mL

Q: What about the MIC50 (pneumococci; [6]) of the same compound?
A: 0.125 µg/mL (≈ 0.154 µM)

Q: And the MIC90 (pneumococci; [6])?
A: 0.25 µg/mL (≈ 0.308 µM)

Q: What about the MIC (pneumococci; Streptococcus pneumoniae, read-out: MIC range) of the same compound?
A: 0.015 to 0.03 µg/mL (≈ 0.0185 to 0.0369 µM)

Q: And the MIC (pneumococci; Streptococcus pneumoniae, read-out: MIC range, pneumococci, L4 mutations (27))?
A: 0.06 to 0.25 µg/mL (≈ 0.0739 to 0.308 µM)

Q: And the MIC50 (M. pneumoniae)?
A: 0.00025 µg/mL (≈ 0.000308 µM)

Q: And the MIC90 (M. pneumoniae)?
A: 0.001 µg/mL (≈ 0.00123 µM)

Q: What about the “MIC 90%” value (S. pneumoniae [4]) of the same compound?
A: 0.5 µg/mL (≈ 0.616 µM)

Q: And the susceptible (S. pneumoniae [4])?
A: 100.0%

Q: And the MIC90 (S. pneumoniae [4]; Streptococcus pneumoniae)?
A: 1 µg/mL (≈ 1.23 µM)
